Residues, ends and D or L forms follow the SMILES beside them. *: point of attachment. Cbz = O=C(OCc1ccccc1)*
Key:
Format in all cases: cell-based, human
HA-DISC1, HEK293 cells = assay: HA-DISC1 protein level in transfected HEK293 cells; settings: MG132 10 μM, Figure 1c, n=3
Protocol: (§1) HEK293 cells were sourced from ATCC (CRL-1573) and cultured as described in the manufacturer’s protocol. DMEM (SIGMA) supplemented with 10% fetal bovine serum, 2 mM L-glutamine, […] penicillin-streptomycin at 37 °C in a humidified atmosphere of 5% CO2. The cells were passaged at about 80% confluency. Cells were transfected with plasmid DNA using polyfect transfection reagent (Qiagen) according to the manufacturer’s instructions. HEK293 cells were treated with the pharmacological agents cycloheximide (C7698) and MG132 (M7449) (Sigma-Aldrich) or DISC1 disruptor peptides (custom synthesized by Severn Biotech) as described in the text.
(§2) Briefly, detergent-soluble proteins were isolated from cells by disruption in lysis buffer 20 mM Tris-HCl (pH 7.5), 150 mM NaCl, 1 mM Na2EDTA, 1 mM EGTA, 1% triton, 2.5 mM sodium pyrophosphate, 1 mM β-glycerophosphate, 1 mM Na3VO4, 1 μg ml^–1 leupeptin, 10 mM DTT with Roche protease inhibitor, phosSTOP (Roche, 04906837001). Detergent-insoluble proteins were removed by centrifugation at 10 000 g for 10 min, and the soluble fraction was retained. Cell lysates were adjusted to equal protein amount (1 μg μl^–1) using cell lysis buffer. Cell lysates normalized for the protein concentration were incubated with mouse IgG (Millipore, 12487) Protein A agarose beads for 2 h at 4 °C. […] The complexes were analyzed on SDS PAGE. […]

DISC1, HEK293 cells = assay: Endogenous DISC1 protein level in HEK293 cells, western blot; settings: MG132 10–60 μM, 1 h, Figure 1b
Protocol: as §1, §2

HA-DISC1 = assay: DISC1 ubiquitination in transfected HEK293 cells, immunoprecipitation
Protocol: as §2
Antibodies used in this study are detailed in Supplementary Table 1. […] Chemiluminescent images of immune detected bands were recorded on blue-light sensitive autoradiography X-ray films, which were then developed using the Kodak X-Omat Model 2000 processor and band intensities were quantified using image J. Alternatively blots were visualized using the Licor Odyssey system and quantified using LICOR Image Studio Lite (Licor Biosciences).
Figure 1 DISC1 turnover is regulated by the ubiquitin-proteosome system. […] HA-DISC1 levels were evaluated using densitometry (bar-chart, n=3). ‘Nt’ indicates no treatment control. […]

## CC(C)C[C@@H](C=O)NC(=O)[C@H](CC(C)C)NC(=O)[C@H](CC(C)C)NC(=O)OCc1ccccc1 [MG132] (Cbz-Leu-Leu-Leu-aldehyde)
HA-DISC1, HEK293 cells
  HA-DISC1 protein expression after MG132: transiently increased
DISC1, HEK293 cells
  endogenous DISC1 level after MG132: elevated
HA-DISC1; MG132 10 μM, 30 min exposure, Figure 1c
  co-purification of HA-DISC1 with ubiquitin: HA-DISC1 immunoprecipitates co-purify with ubiquitin after a 30 min exposure to MG132
HA-DISC1; MG132 10 µM, Supplementary Figure 1a
  DISC1 ubiquitination with over-expressed DISC1 or ubiquitin, further effect of MG132: not enhanced further by MG132

— PMC5984089, “FBXW7 regulates DISC1 stability via the ubiquitin-proteosome system” (Molecular Psychiatry, 2017)
